Assays:
MCF7 [1] = assay: Antiproliferative activity against human MCF7 cells after 48 hrs by SRB assay; assay type: functional, cell-based; conditions: MCF7, 48 h
MCF7 [2] = assay: Potency index, ratio of colchicine IC50 to compound IC50 for human MCF7 cells; assay type: functional
[3] = biological target: Tubulin beta-5 chain (Homo sapiens) (UniProt P07437); assay: Inhibition of tubulin beta polymerization in human HepG2 cells after 18 to 24 hrs by spectrophotometric method relative to control; assay type: cell-based; parameters: concentration or dose not given beside the values; conditions: concentration not given here
Tubulin beta-5 chain (Homo sapiens), sequence (P07437 whole entry): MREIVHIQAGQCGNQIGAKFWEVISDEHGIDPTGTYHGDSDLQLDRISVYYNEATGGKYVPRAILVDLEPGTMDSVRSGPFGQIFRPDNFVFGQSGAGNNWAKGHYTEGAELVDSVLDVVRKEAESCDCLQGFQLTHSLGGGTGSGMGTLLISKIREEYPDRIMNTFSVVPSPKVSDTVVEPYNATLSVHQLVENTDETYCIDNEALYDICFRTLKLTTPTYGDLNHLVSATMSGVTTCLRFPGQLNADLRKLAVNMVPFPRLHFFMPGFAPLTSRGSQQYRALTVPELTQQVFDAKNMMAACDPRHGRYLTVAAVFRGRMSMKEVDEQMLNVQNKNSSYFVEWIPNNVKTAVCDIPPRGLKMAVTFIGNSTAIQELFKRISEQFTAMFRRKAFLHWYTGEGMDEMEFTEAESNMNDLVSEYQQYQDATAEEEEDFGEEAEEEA

HepG2 = assay: Antiproliferative activity against human HepG2 cells after 48 hrs by SRB assay; assay type: functional, cell-based; conditions: HepG2, 48 h
[4] = Selectivity ratio of IC50 for mouse AML-12 cells to IC50 for human HepG2 cells
[5] = Cytotoxicity against mouse AML-12 cells by MTT assay; assay type: cell-based; conditions: AML12
[6] = Cytotoxicity against human Hs 371.T cells by MTT assay; assay type: cell-based
[7] = Selectivity ratio of IC50 for human Hs 371.T cells to IC50 for human MCF7 cells
[8] = biological target: Tubulin beta-5 chain (Homo sapiens) (UniProt P07437); assay: Inhibition of tubulin beta polymerization in human MCF7 cells after 18 to 24 hrs by spectrophotometric method relative to control; assay type: cell-based; parameters: concentration or dose not given beside the values; conditions: concentration not given here

Row | IC50 (MCF7 [1]) [nM] | inhibition [3] [%] | IC50 (HepG2) [nM] | inhibition [8] [%] | SMILES | Ratio IC50 (MCF7 [2]) | Ratio IC50 [4] | IC50 [5] [nM] | IC50 [6] [nM] | Ratio IC50 [7]
1 | 120 | 92.4 | 11 |  | COc1cc(C2=CC(c3ccc(Cl)cc3)NC(=S)N2)cc(OC)c1OC (stereo unspecified) | 2 | 2.5 - 9 | 88.5 |  | 
2 | 9.9 | 88.5 | 37.2 | 92.2 | COc1cccc(C(=O)C(O)C(Nc2ccc(F)c(Cl)c2)c2ccc(Br)cc2)c1 (stereo unspecified) |  |  |  | 90.2 | 2.5 - 9
3 | 16 |  | 13 |  | COc1ccc(C2=NN(c3ccccc3)C(c3ccc(F)cc3)C2O)cc1 (stereo unspecified) |  |  |  |  | 
4 | 14 |  | 17 | 88.4 | COc1cccc(C(=O)C2OC2c2ccc(F)cc2)c1 (stereo unspecified) | 10 |  |  |  | 
5 | 77 | 92.8 | 9.5 |  | COc1cc(C2=CC(c3ccc(Br)cc3)NC(=S)N2)cc(OC)c1OC (stereo unspecified) | 2 | 2.5 - 9 | 59.4 |  | 
6 | 135 |  | 34 |  | COc1cccc(C2=CC(c3ccc(Br)cc3)NC(=S)N2)c1 (stereo unspecified) | 2 |  |  |  | 
7 | 19 |  | 10.2 |  | COc1ccc(C2=NN(c3ccccc3)C(c3ccc(OC)cc3)C2O)cc1 (stereo unspecified) |  |  |  |  | 
8 | 150 | 90.6 | 54 |  | COc1cccc(C2=CC(c3ccc(Cl)cc3)NC(=S)N2)c1 (stereo unspecified) | 2 |  |  |  | 
9 | 49 |  | 43 |  | COc1cccc(C2=NNC(c3ccc(Br)cc3)C2O)c1 (stereo unspecified) |  |  |  |  | 
10 | 9.7 | 93 | 11 | 92.3 | COc1cccc(C2=NN(c3ccccc3)C(c3ccc(Cl)cc3)C2O)c1 (stereo unspecified) |  | 2.5 - 9 | 74.1 | 86.7 | 2.5 - 9
11 | 125 |  | 61.9 |  | COc1cc(C2=CC(c3ccc(F)cc3)NC(=S)N2)cc(OC)c1OC (stereo unspecified) | 2 |  |  |  | 
12 | 49 |  | 35.3 |  | COc1cccc(C2=NNC(c3ccc(Cl)cc3)C2O)c1 (stereo unspecified) |  |  |  |  | 
13 | 103 |  | 90 |  | COc1ccc(C2C=C(c3cc(OC)c(OC)c(OC)c3)NC(=S)N2)cc1 (stereo unspecified) | 2 |  |  |  | 
14 | 11 | 84.6 | 9.9 | 87.8 | COc1cccc(C2=NN(c3ccccc3)C(c3ccc(Br)cc3)C2O)c1 (stereo unspecified) |  | 2.5 - 9 | 26.9 | 474 | 2.5 - 9
15 | 126 | 91.4 | 30 |  | COc1ccc(C2=CC(c3ccc(Br)cc3)NC(=S)N2)cc1 (stereo unspecified) | 2 |  |  |  | 
16 | 26 |  | 15 |  | COc1ccc(C(=O)C2OC2c2ccc(Cl)cc2)cc1 (stereo unspecified) |  |  |  |  | 

Row | SMILES | IC50 (MCF7 [1]) [nM] | inhibition [3] [%] | IC50 (HepG2) [nM] | inhibition [8] [%] | Ratio IC50 (MCF7 [2]) | Ratio IC50 [4] | IC50 [5] [nM] | IC50 [6] [nM] | Ratio IC50 [7]
17 | COc1cccc(C(=O)C2SC2c2ccc(Cl)cc2)c1 (stereo unspecified) | 15 | 88.6 | 13 | 89.3 |  |  |  |  | 
18 | COc1cccc(C(=O)C2SC2c2ccc(Br)cc2)c1 (stereo unspecified) | 23 | 85.7 | 11 |  |  |  |  |  | 
19 | COc1cc2c(c(OC)c1OC)-c1ccc(OC)c(=O)cc1[C@@H](NC(C)=O)CC2 [COLCHICINE] | 150 |  | 124 |  |  |  | 138 | 443 | 
